Measurements published in patent US20090163577A1, “METHODS AND COMPOSITIONS FOR ANTAGONIZING ANTI-APOPTOTIC Bcl-2-FAMILY PROTEINS” (Burnham Institute for Medical Research, priority 2007, published 2009).
“Also recorded” adds a separate entry of the source. Read-outs that look alike come from different tables or passages of the source. One block for each compound: values may come before it.

Experiments:
[1] = molecular target: T1, Bcl-XL (Homo sapiens, UniProt Q07817); test: FPA competitive FITC-Bid BH3 peptide displacement, Bcl-XL; assay type: binding; settings: 100 nM GST-Bcl-XL, 5 nM FITC-Bid BH3 peptide, read-out: IC50 (μM) for Gambogic acid
T1 construct: lacking their C-terminal transmembrane domains (last 20 amino-acids) (“ΔTM”); made in house; host or cells: E. coli XL-1 Blue (pGEX 4T-1)
T1 sequence (Q07817 1-213 limits assumed): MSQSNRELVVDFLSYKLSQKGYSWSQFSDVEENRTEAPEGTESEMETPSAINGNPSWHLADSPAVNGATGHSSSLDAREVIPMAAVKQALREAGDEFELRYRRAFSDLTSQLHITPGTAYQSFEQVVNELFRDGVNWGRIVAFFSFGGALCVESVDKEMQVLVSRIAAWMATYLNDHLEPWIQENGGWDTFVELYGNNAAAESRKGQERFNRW
Source text: (§1) (A) Structure of gambogic acid.
(§2) Fluorescence Polarization Assays (FPAs).
(§3) Competitive Peptide Displacement Assays.

[2] = molecular target: T2, Bcl-2 (Homo sapiens, UniProt P10415); test: FPA competitive FITC-Bid BH3 peptide displacement, Bcl-2; assay type: binding
T2 construct: lacking their C-terminal transmembrane domains (last 20 amino-acids) (“ΔTM”); made in house; host or cells: E. coli XL-1 Blue (pGEX 4T-1)
T2 sequence (P10415 1-219 limits assumed): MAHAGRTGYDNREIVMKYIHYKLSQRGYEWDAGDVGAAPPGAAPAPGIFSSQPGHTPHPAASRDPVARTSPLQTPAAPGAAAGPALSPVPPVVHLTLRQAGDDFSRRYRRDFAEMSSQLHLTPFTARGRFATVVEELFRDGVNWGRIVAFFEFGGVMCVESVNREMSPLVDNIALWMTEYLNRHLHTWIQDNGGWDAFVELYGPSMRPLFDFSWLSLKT
Source text: as §1, §2, §3

[3] = molecular target: T3, Bcl-W (Homo sapiens, UniProt Q92843); test: FPA competitive FITC-Bid BH3 peptide displacement, Bcl-W; assay type: binding; settings: 100 nM GST-Bcl-W, 5 nM FITC-Bid BH3 peptide, read-out: IC50 (μM) for Gambogic acid
T3 construct: lacking their C-terminal transmembrane domains (last 20 amino-acids) (“ΔTM”); made in house; host or cells: E. coli XL-1 Blue (pGEX 4T-1)
T3 sequence (Q92843 1-173 limits assumed): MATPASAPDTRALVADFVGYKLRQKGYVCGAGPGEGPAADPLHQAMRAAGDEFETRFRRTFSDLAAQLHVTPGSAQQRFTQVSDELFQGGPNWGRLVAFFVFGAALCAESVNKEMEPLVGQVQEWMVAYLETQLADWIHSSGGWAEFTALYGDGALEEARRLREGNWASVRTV
Source text: as §1, §2, §3

[4] = molecular target: T4, Bcl-B (Homo sapiens, UniProt Q9HD36); test: FPA competitive FITC-Bid BH3 peptide displacement, Bcl-B; assay type: binding; settings: 100 nM GST-Bcl-B, 5 nM FITC-Bid BH3 peptide, read-out: IC50 (μM) for Gambogic acid
T4 construct: lacking their C-terminal transmembrane domains (last 20 amino-acids) (“ΔTM”); made in house; host or cells: E. coli XL-1 Blue (pGEX 4T-1)
T4 sequence (Q9HD36 1-184 limits assumed): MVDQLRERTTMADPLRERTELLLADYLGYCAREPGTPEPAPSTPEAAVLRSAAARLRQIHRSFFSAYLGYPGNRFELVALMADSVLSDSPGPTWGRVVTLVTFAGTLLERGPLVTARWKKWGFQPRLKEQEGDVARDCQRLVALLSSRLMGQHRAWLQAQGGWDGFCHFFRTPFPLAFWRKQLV
Source text: as §1, §2, §3

[5] = molecular target: T5, Mcl-1 (Homo sapiens, UniProt Q07820); test: FPA competitive FITC-Bid BH3 peptide displacement, Mcl-1; assay type: binding; settings: 100 nM GST-Mcl-1, 5 nM FITC-Bid BH3 peptide, read-out: IC50 (μM) for Gambogic acid
T5 construct: lacking their C-terminal transmembrane domains (last 20 amino-acids) (“ΔTM”); made in house; host or cells: E. coli XL-1 Blue (pGEX 4T-1)
T5 sequence (Q07820 1-330 limits assumed): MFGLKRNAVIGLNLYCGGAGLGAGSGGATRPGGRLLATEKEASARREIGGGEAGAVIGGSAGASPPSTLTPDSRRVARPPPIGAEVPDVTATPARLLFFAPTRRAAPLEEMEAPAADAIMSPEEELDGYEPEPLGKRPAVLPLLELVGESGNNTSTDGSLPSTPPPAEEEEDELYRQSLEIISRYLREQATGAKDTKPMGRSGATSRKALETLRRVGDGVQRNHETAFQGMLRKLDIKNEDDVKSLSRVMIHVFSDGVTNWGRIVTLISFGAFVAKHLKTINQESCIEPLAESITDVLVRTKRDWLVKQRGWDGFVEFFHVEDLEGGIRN
Source text: as §1, §2, §3

[6] = molecular target: T6, GST-Bcl-XL (Homo sapiens, UniProt Q07817); test: TR-FRET assay, FITC-Bad BH3 peptide binding to GST-Bcl-XL; settings: 10 nM GST-Bcl-XL, 10 nM FITC-Bad BH3 peptide, read-out: apparent IC50, inhibition of FITC-Bad BH3 peptide binding
T6 construct: lacking their C-terminal transmembrane domains (last 20 amino-acids) (“ΔTM”); made in house; host or cells: E. coli XL-1 Blue (pGEX 4T-1)
T6 sequence (Q07817 1-213 limits assumed): as the sequence (Q07817 1-213 limits assumed) above
Method: (A) Binding of GST-Bcl-XL to FITC-BH3 peptide was assayed by TR-FRET. The final reaction mixtures contain 10 nM of FITC-Bad BH3 peptide, 2 nM of anti-GST-Turbium, and various concentrations of GST-Bcl-XL proteins in PBS buffer containing 0.005% Tween 20. (B) Analysis of GA competition with BH3 peptide for Bcl-XL binding by TR-FRET. Reaction mixtures of final 20 μl volume contain 2 μl of various concentrations of GA with 10 nM FITC-Bad BH3 peptide, 2 nM anti-GST-Terbium, and 10 nM GST-Bcl-XL protein in PBS buffer containing 0.005% Tween 20. The mixtures are incubated for 30 min at room temperature. TR-FRET signals were measured using excitation at 330 nm, emission for FITC signal at 490 nm, and emission for terbium signal at 520 nm. Data are presented as 520 nm/490 nm ratio (mean±std dev; n=3).
Time-Resolved-Fluorescence Resonance Energy Transfer (TR-FRET) Assays. For TR-FRET assays, GST-Bcl-XL and anti-GST-terbium (Invitrogen) were mixed together with the FITC-Bad BH3 peptide in PBS containing 0.005% tween 20 in 96 well plates in a total volume of 20 μl per well. […] TR-FRET signals were measured with a SpectraMax M5 plate reader (Molecular Devices) using the following settings: excitation at 330 nm, emission for FITC signal at 490 nm, and emission for terbium signal at 520 nm. […]

[7] = test system: BIR3 of XIAP; test: FPA, rhodamine-SMAC peptide binding to BIR3 of XIAP; settings: not shown
[8] = molecular target: Hsp70 (Homo sapiens, UniProt P0DMV8); test: FPA, FITC-ATP binding to Hsp70; settings: not shown
Hsp70, sequence (P0DMV8 whole entry): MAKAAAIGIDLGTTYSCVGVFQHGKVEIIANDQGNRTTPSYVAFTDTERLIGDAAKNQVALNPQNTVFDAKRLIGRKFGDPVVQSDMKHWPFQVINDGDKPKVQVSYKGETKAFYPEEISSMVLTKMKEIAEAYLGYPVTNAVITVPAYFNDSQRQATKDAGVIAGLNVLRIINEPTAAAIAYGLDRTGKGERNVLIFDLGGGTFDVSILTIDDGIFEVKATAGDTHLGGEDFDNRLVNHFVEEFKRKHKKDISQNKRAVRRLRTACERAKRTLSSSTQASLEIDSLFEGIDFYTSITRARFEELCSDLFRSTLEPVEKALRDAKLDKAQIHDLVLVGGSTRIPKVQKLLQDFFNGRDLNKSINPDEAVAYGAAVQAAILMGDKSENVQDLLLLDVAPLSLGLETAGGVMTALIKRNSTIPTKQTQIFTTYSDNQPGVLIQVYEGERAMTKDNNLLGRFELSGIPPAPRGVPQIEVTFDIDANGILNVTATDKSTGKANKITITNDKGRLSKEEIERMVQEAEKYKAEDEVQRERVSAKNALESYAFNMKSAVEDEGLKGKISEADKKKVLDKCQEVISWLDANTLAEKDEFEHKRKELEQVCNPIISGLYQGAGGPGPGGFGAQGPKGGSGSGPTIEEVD

[9] = test system: anti-apoptotic Bcl-2-family proteins (Bcl-2, Bcl-XL, Bfl-1, Bcl-W, Mcl-1); test: tBid-induced SMAC release from isolated HeLa mitochondria; assay type: biochemical, human
Method: Mitochondria Purification and Protein Release Assays. HeLa cells were pelleted by centrifugation, and then washed once in HM buffer (10 mM HEPES, pH 7.4, 250 mM mannitol, 10 mM KCl, 5 mM MgCl2, 1 mM EGTA), containing 1 mM PMSF and a mixture of protease inhibitors (Roche Molecular Biochemicals). The cell pellet was then homogenized in HM buffer by 50 strokes of a dounce homogenizer, using a B-type pestle. The homogenate was centrifuged twice at 600 g for 5 min to remove nuclei and debris. The resulting supernatant was centrifuged at 10,000 g for 10 min, and the resulting mitochondria-containing pellet was washed twice with the HM buffer.
For mitochondrial protein release assays, 10 μl of mitochondria (50 μg) were added into a final volume of 50 μl HM buffer containing gambogic acid, tBid or tBid pre-incubated with gambogic acid or Bcl-2 family proteins at 30° C. for 15 min. The reactions were further incubated at 30° C. for 40-60 min, then mitochondria were pelleted by centrifugation and the supernatants were collected, boiled in Laemmli sample buffer, and analyzed by SDS-PAGE/immunoblotting using anti-SMAC antibody (Zhai et al., J. Biol. Chem. 280:15815-15824, 2005).
GA neutralizes activity of Bcl-2-family proteins in vitro. An active, N-terminally truncated form of the pro-apoptotic BH3-containing protein Bid (tBid) induces release of apoptogenic proteins such as SMAC from isolated mitochondria in vitro (Becattini et al., Chem. Biol. 11:1107-1117, 2004; Zhai et al., J. Biol. Chem. 280:15815-15824, 2005; Luciano et al., J. Biol. Chem. 280:15825-15835, 2005). […] Samples were centrifuged to generate supernatants that were analyzed by SDS-PAGE/immunoblotting using anti-SMAC antibody. […] Complete restoration was typically achieved with 5 μM GA, representing an approximately 10:1 molar excess of GA relative to anti-apoptotic Bcl-2-family proteins.

[10] = test system: Jurkat T-cell acute lymphoblastic leukemia; test: Apoptosis, Annexin V/PI staining, Jurkat; assay type: cell-based; settings: Homo sapiens, within 20-24 hrs, read-out: concentration required to induce apoptosis of 50% of the cells
Method: (§4) Gambogic acid was used to treat HL-60 (black symbols) or Jurkat (white symbols) cells at concentrations of 0, 0.1, 0.2, 0.5, 2, 5 μM (from left to right).
(§5) Cell Culture, Transfection, and Apoptosis Assays.
(§6) GA overcomes cytoprotection of Bcl-2 in leukemia cells. GA has cytotoxic activity against various tumor cell lines in culture and induces apoptosis (Zhang et al., Bioorg. Med. Chem. 12:309-317, 2004; Zhao et al., Biol. Pharm. Bull. 27:998-1003, 2004). We confirmed the apoptosis-inducing activity of GA using Jurkat T-cell acute lymphoblastic leukemia and HL-60 acute promyelomonocytic leukemia cell lines, using Annexin V/propidium iodide (PI) staining, counting Annexin V+/PT− cells as apoptotic (FIG. 3). The concentration of GA required to induce apoptosis of 50% of the cells within 20-24 hrs was ˜0.2 μM and ˜0.5 μM for Jurkat and HL-60, respectively.

[11] = test system: HL-60 acute promyelomonocytic leukemia; test: Apoptosis, Annexin V/PI staining, HL-60; assay type: cell-based; settings: Homo sapiens, HL-60, within 20-24 hrs, read-out: concentration required to induce apoptosis of 50% of the cells
Method: as §4, §5, §6

[12] = test system: prostate cancer cell line PPC1; test: Pro-caspase-3 processing, immunoblot, PPC1; assay type: cell-based; settings: PPC1, 20 hrs, 0 to 10 μM
Method: To determine GA's affect on processing of pro-caspase-3, a marker of apoptosis, cells of the prostate cancer cell line PPC1 were treated with gambogic acid at concentrations from 0 to 10 μM. After 20 hrs, the cells were collected and the cell lysates were analyzed by SDS-PAGE/immunoblotting using anti-caspase 3 antibody. GA induced clearly detectable proteolytic processing of pro-caspase-3 at concentrations≧2 μM.

[13] = test system: Bcl-2 over-expressing HL-60 cells; test: Cytotoxicity in NEO-control vs Bcl-2 over-expressing HL-60 cells; assay type: cell-based
Source text: Data are representative of at least 3 independent experiments.
as §5
We tested the cytotoxic activity of GA against HL-60 cells that had been stably transfected with NEO-control or Bcl-2-expression plasmids (Konopleva et al., Blood 95:3929-3938, 2000).

[14] = test system: bax+/+ bak+/+ MEFs; test: Cytotoxicity in wild-type MEFs; assay type: cell-based, mouse; settings: 20 hrs
Source text: as §5
GA-induced cytotoxicity is only partly Bcl-2-dependent. Anti-apoptotic Bcl-2-family proteins suppress mitochondria-initiated cell death by inhibiting pro-apoptotic Bcl-2 members Bax and Bak (Kroemer and Reed, Nat. Med. 6:513-519, 2000; Reed, Am. J. Pathol. 157:1415-1430, 2000; Li et al., Cell 116 (2 Suppl.):S57-59, 2 p. following S59). Consequently, when cells are genetically engineered to lack Bax and Bak, then Bcl-2 and related cytoprotective proteins no long display an anti-apoptotic phenotype (Wei et al., Science 292:727-730, 2001). Cells doubly deficient in Bax and Bak therefore provide a context for assessing the mechanism of GA-induced toxicity. GA killed transformed mouse fibroblasts (MEFs) generated from bax+/+ bak+/+ embryos in a concentration-dependent manner (FIG. 6A). […] We conclude therefore that GA induces cytotoxicity through mechanisms that are only partly dependent on Bcl-2-family proteins.

[15] = test system: bax−/− bak−/− MEFs; test: Cytotoxicity in bax-/- bak-/- MEFs; assay type: cell-based, mouse; settings: 20 hrs; listed as GA
[16] = test system: tumor cell lines; settings: tumor cell lines in culture; cited from earlier work
[17] = test system: Bax, Bcl-2, transferrin receptor; settings: cited from earlier work
[18] = test system: dividing cells; settings: cited from earlier work
[19] = rats; cited from earlier work
[20] = molecular target: T7, Bfl-1 (Homo sapiens, UniProt Q16548); test: FPA competitive FITC-Bid BH3 peptide displacement, Bfl-1 (also HTS); settings: for activity in BH3 displacement assays: FPA, FITC-Bid BH3 peptide, compared with GA
T7 sequence (Q16548 1-155 limits assumed): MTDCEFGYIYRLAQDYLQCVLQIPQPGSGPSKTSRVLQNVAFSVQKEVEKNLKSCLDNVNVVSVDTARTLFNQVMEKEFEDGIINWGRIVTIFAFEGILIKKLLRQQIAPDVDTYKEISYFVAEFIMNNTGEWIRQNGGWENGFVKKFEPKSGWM

[21] = test system: Jurkat cells; test: Cytotoxicity of GA analogs, live cells by Annexin V/PI, Jurkat; settings: 20 hrs, 0-50 μM
[22] = test system: Jurkat cells

SMILES: CC(C)=CCC[C@]1(C)C=Cc2c(O)c3c(c(CC=C(C)C)c2O1)O[C@]12C(=C[C@@H]4C[C@H]1C(C)(C)O[C@@]2(C/C=C(/C)C(=O)O)C4=O)C3=O [Gambogic acid]
IC50 [1]: 1.47 µM
IC50 ([2]; 100 nM GST-Bcl-2, 5 nM FITC-Bid BH3 peptide, read-out: IC50 (μM) for Gambogic acid): 1.21 µM
sensitivity to displacement of FITC-BH3 peptide among the six proteins ([2]; FIG. 1): the least
IC50 [3]: 2.02 µM
IC50 [4]: 0.66 µM
IC50 [5]: 0.79 µM
IC50 [6]: 1500 nM
inhibition of rhodamine-SMAC peptide binding [7]: did not inhibit
inhibition of FITC-ATP binding [8]: did not inhibit
concentration for complete restoration of tBid-induced SMAC release ([9]; 20 ng tBid, 2 μg Bcl-2-family protein, 50 μg HeLa mitochondria): 5 µM
restoration of tBid-induced SMAC release ([9]; recombinant Bcl-2, Bcl-XL, Bfl-1, Bcl-W or Mcl-1 added, listed as GA): neutralizes their suppressive effects on mitochondria in a concentration-dependent manner; also recorded: restored tBid-induced SMAC release in a concentration-dependent manner
tBid-induced release of SMAC ([9]; recombinant Bcl-2-family proteins not added): enhanced
EC50 [10]: ~200 nM
EC50 [11]: ~500 nM
concentration giving clearly detectable proteolytic processing of pro-caspase-3 [12]: ≥ 2 µM
effect of Bcl-2 over-expression on cytotoxicity [13]: reduced the sensitivity
killing of wild-type MEFs [14]: killed
killing of bax−/− bak−/− MEFs [15]: killed; also recorded: retained cytotoxic activity
concentration required for killing 50% of cells (LD50) [16]: ~1 µM
Bax protein levels [17]: increases in Bax protein levels
Bcl-2 protein levels [17]: reductions in Bcl-2 protein levels
transferrin receptor internalization [17]: suppressing transferring receptor internalization
cell cycle arrest [18]: induces G2/M-phase arrest
tolerability [19]: well tolerated
IC50 [20]: 1060 nM
suppression of BH3 peptide binding in HTS ([20]; library screen, 10 μM compound): ≥ 50%

activity in BH3 displacement assays [20]: greatly reduced activity
SMILES: CC(C)=CCCC1(C)C=Cc2c(O)c3c(c(CC=C(C)C)c2O1)OC12C(=CCCC1C(C)(C)O[C@@]2(C/C=C(\C)C(=O)O)C(=O)O)C3=O (stereo partly shown) [Garcinolic acid]
cytotoxic activity against cultured leukemia cells [21]: non-toxic

SMILES: CN[C@@H]1C[C@H]2O[C@@](C)([C@@H]1OC)n1c3ccccc3c3c4c(c5c6ccccc6n2c5c31)C(=O)NC4 [staurosporine, reference compound]
effect of Bcl-2 over-expression on cytotoxicity ([13]; HL-60 Bcl-2 vs NEO-control, 8 hrs): block to apoptosis

SMILES: CC(C)=CCC[C@]1(C)C=Cc2c(O)c3c(c(CC=C(C)C)c2O1)O[C@]12C(C[C@@H]4CC1C(C)(C)O[C@@]2(C/C=C(/C)C(=O)O)C4O)C3=O (stereo partly shown) [tetrahydro-GA]
cytotoxic potency relative to GA (fold less potent) [22]: ~50 fold
activity in BH3 displacement assays [20]: greatly reduced activity
